Experimental data reported in patent US20220154404A1, “Active Materials, Surfaces, Surface Treatments And Methods For Packaging Materials, Boxes, And Containers Using Photosensitizers For Pathogen Reduction” (Mi2 Holdings LLC, priority 2020, published 2022).
Read-outs that look alike come from different tables or passages of the source.

What was measured:
[1] = cited from earlier work
[2] = cited from earlier work; for Epsilon: ideal solvent
[3] = ideal solvent; cited from earlier work
[4] = Absorption characteristics of photosensitizers with peak absorptions in visible light (Lambda Max, Epsilon); type: physicochemical; details: determined in water
Excerpt: Examples of photosensitizers having peak absorptions in visible light and their absorption characteristics is: […]

Molecule | water solubility [1] | Lambda Max ([2]; first or only peak) | Epsilon ([2]; first or only peak) | Lambda Max ([2]; second peak (after the slash)) | Singlet Oxygen QY [3] | Epsilon ([4]; first or only peak) | Epsilon ([4]; second peak (after the slash)) | Epsilon ([2]; second peak (after the slash))
IRDye 700DX HHS Ester [IR700] | good solubility |  |  |  |  |  |  | 
O=C([O-])c1ccccc1-c1c2cc(Br)c(=O)c(Br)c-2oc2c(Br)c([O-])c(Br)cc12.[Na+].[Na+] [Eosin Y] |  | 525 | 112,000 |  |  |  |  | 
Verteporfin |  | 435 | ~70,000 |  |  |  |  | 
C=Cc1c(C)c2cc3nc(c(CC(=O)O)c4[nH]c(cc5nc(cc1[nH]2)C(C)=C5CC)c(C)c4C(=O)O)[C@@H](CCC(=O)O)[C@@H]3C [Chlorin e6, chlorin e6] |  | 400 |  | 650 | 0.65 | 150,000 | 30,000 | 
CN(C)c1ccc2nc3ccc(=[N+](C)C)cc-3sc2c1 [Methylene Blue, methylene blue (CAS #61-73-4)] |  | 665 |  |  | 0.52 | 48,000 |  | 
O.O=C([O-])c1ccccc1-c1c2cc(I)c(=O)c(I)c-2oc2c(I)c([O-])c(I)cc12.[Na+].[Na+] [Erythrosin B] |  | 530 | 82,000 |  | 0.63 |  |  | 
O=C([O-])c1c(Cl)c(Cl)c(Cl)c(Cl)c1-c1c2cc(I)c(=O)c(I)c-2oc2c(I)c([O-])c(I)cc12.[Na+].[Na+] [Rose Bengal, Rose Bengal (CAS #632-69-9)] |  | 562 | 90,000 |  | 0.76 |  |  | 
CCNc1cc2[s+]c3cc(NCC)c(C)cc3nc2cc1C.[Cl-] [New MB] |  | 630 |  |  |  | 64,000 |  | 
C=Cc1c(C)c2cc3nc(c(CC(=O)N[C@@H](CC(=O)O)C(=O)O)c4[nH]c(cc5nc(cc1[nH]2)C(C)=C5CC)c(C)c4C(=O)O)[C@@H](CCC(=O)O)[C@@H]3C [Talaporfin (LS11, MACE, NPs6), Talaporfin] |  | 400 | 180,000 | 654 | 0.77 |  |  | 40,000
